Data published in patent KR20190126525A, “신규 소듐채널 저해 화합물, 이의 제조방법, 및 이를 포함하는 소듐채널 관련 질환의 예방 또는 치료용 약학적 조성물” (이화여자대학교 산학협력단, priority 2018, dated 2019).

Columns and labels:
[1] = target: T1, Nav1.7 (Homo sapiens, UniProt Q15858); test: VIPR (voltage/ion probe reader) membrane potential assay, Nav1.7; format: cell-based; conditions: for inhibition at 10 µM: HEK293, HEK cells expressing hNav1.7, veratridine; for selective inhibitory activity against Nav1.7: Nav1.7 versus Nav1.8, 10uM, from Table 2
T1 construct: host or cells: HEK cells
T1 sequence (Q15858 whole entry): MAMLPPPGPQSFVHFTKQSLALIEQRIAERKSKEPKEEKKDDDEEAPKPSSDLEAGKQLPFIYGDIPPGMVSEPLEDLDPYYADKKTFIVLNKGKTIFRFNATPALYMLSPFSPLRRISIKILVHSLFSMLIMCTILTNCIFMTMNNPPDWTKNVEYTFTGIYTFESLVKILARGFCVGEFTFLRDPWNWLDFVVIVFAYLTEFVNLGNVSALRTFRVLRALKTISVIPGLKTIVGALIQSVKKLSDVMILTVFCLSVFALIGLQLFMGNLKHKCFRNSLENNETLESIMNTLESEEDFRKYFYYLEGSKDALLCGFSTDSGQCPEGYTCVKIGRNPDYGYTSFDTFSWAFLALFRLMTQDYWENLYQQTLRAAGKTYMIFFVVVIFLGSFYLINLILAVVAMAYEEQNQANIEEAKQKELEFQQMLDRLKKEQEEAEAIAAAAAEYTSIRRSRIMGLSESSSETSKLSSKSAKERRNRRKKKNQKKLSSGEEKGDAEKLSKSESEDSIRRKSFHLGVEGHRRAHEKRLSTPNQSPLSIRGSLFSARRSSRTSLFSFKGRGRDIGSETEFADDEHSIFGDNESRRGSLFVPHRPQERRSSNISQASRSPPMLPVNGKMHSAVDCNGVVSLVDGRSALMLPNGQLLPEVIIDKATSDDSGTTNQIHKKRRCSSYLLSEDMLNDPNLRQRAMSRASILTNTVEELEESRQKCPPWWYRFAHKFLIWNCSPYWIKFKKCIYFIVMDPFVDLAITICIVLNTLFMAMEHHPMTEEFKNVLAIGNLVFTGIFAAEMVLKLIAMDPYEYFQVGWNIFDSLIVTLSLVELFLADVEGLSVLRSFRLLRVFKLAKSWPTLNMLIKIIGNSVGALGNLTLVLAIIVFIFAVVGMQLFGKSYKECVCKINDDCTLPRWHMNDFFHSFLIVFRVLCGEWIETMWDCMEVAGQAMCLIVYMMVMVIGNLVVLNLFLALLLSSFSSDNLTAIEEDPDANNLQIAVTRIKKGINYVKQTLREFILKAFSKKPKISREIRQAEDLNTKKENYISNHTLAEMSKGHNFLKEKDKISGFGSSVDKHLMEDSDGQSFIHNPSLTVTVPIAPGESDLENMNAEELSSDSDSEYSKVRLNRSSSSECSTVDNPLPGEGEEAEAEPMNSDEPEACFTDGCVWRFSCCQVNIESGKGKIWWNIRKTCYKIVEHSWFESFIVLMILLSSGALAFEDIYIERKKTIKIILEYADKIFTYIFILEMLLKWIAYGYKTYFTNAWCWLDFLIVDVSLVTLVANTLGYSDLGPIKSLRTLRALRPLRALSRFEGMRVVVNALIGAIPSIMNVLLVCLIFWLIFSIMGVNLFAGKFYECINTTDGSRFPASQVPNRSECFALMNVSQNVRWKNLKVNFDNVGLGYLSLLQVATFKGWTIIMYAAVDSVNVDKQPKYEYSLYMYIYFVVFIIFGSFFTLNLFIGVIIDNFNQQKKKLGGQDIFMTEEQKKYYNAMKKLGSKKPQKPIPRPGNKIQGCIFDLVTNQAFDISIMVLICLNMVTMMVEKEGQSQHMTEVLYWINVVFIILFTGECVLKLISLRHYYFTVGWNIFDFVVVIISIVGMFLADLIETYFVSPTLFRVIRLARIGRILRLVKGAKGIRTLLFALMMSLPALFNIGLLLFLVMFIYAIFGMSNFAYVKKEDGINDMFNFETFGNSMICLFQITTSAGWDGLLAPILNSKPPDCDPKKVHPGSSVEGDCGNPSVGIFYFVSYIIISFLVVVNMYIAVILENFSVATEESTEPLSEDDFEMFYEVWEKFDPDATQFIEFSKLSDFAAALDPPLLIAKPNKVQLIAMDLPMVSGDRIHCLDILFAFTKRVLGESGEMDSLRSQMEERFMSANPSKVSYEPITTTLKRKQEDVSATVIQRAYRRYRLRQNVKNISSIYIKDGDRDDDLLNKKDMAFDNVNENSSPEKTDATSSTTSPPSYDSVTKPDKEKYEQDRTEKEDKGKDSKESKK

[2] = target: T2, Nav1.8 (Homo sapiens, UniProt Q9Y5Y9); test: VIPR (voltage/ion probe reader) membrane potential assay, Nav1.8; format: cell-based; conditions: HEK293, HEK cells expressing hNav1.8, veratridine
T2 construct: host or cells: HEK cells
T2 sequence (Q9Y5Y9 whole entry): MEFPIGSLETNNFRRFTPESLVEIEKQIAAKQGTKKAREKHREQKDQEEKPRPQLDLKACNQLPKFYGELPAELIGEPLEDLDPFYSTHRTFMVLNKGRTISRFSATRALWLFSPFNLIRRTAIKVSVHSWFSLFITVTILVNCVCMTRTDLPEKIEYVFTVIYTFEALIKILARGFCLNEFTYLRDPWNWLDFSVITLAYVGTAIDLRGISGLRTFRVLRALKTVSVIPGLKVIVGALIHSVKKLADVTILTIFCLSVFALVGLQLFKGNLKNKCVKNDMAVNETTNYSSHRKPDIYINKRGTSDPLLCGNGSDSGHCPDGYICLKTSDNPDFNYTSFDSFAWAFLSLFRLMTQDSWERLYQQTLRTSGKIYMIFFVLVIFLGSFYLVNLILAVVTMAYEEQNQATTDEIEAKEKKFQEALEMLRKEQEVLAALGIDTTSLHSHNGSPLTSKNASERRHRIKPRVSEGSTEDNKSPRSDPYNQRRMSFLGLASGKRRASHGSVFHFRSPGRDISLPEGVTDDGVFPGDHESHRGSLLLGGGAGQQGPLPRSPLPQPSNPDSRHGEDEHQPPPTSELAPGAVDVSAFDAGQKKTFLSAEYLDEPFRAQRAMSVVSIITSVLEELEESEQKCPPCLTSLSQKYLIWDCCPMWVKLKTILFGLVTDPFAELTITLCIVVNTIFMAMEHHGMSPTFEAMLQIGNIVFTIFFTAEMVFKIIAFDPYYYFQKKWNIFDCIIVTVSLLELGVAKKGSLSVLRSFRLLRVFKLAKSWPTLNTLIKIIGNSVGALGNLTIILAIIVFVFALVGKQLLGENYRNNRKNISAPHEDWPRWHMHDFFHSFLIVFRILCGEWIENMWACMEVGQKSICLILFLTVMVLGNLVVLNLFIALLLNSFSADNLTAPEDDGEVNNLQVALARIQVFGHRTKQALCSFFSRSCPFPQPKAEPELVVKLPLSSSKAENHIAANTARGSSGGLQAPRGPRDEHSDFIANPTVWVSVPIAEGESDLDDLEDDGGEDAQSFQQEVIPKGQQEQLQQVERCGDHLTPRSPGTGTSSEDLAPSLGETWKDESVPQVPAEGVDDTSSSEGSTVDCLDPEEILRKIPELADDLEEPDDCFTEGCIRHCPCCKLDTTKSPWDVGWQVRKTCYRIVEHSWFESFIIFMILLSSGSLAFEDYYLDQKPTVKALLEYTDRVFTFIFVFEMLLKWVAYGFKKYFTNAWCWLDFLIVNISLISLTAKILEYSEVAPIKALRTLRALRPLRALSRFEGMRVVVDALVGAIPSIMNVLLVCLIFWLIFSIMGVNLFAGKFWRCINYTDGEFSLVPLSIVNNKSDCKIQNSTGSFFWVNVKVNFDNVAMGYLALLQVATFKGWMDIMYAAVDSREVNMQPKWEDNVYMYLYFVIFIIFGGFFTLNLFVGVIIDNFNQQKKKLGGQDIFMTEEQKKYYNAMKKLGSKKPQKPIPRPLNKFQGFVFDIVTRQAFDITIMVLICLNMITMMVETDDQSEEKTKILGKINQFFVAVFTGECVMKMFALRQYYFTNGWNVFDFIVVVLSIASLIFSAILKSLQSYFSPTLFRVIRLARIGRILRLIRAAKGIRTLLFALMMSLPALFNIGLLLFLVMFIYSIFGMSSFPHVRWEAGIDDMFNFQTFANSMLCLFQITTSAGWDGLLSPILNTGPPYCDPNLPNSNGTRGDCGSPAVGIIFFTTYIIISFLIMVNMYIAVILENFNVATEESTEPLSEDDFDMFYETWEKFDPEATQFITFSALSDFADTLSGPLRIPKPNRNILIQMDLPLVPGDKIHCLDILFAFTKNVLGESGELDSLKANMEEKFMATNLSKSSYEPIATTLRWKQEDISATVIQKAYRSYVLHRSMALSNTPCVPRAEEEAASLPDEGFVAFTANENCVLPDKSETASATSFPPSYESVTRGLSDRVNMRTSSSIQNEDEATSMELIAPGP

SMILES | inhibition at 10 µM [1] | selective inhibitory activity against Nav1.7 [1] | inhibition at 10 µM [2]
CC(CCc1ccccc1)NCc1ccc(-c2cncnc2)cc1 (stereo not shown) [실시예 19, 4-페닐-N-(4-(피리미딘-5-일)벤질)부탄-2-아민] | 29.8% | – | –
CC(CCc1ccccc1)NC(=O)c1ccc(-c2ccccc2)cc1 (stereo not shown) [실시예 25, N-(4-페닐부탄-2-일)-[1,1'-바이페닐]-4-카복스아미드] | 84% | 선택적인 저해 활성 | 31.2%
CC(CCc1ccccc1)NCc1ccc(-c2cccc(C(F)(F)F)c2)o1 (stereo not shown) [실시예 12, 4-페닐-N-((5-(3-(트리플루오로메틸)페닐)퓨란-2-일)메틸)부탄-2-아민] | 104% | 선택적인 저해 활성 | 54.4%
CC(CCc1ccccc1)NCc1ccc(N2CCN(C)CC2)cc1 (stereo not shown) [실시예 13, N-(4-(4-메틸피페라진-1-일)벤질)-4-페닐부탄-2-아민] | 66.4% | 선택적인 저해 활성 | 4.97%
COc1ccc(-c2ccc(CNC(C)CCc3ccccc3)o2)cc1Cl (stereo not shown) [실시예 18, N-((5-(3-클로로-4-메톡시페닐)퓨란-2-일)메틸)-4-페닐부탄-2-아민] | 65.9% | 선택적인 저해 활성 | 6.75%
COc1cc(CNCc2c(-c3ccccc3)[nH]c3ccccc23)cc(OC)c1OC [실시예 30, 1-(2-페닐-1H-인돌-3-일)-N-(3,4,5-트리메톡시페닐)메탄아민] | 12.1% | – | 3.3%
COc1cc(CNCc2c[nH]c3ccc(Br)cc23)cc(OC)c1OC [실시예 34, 1-(5-브로모-1H-인돌-3-일)-N-(3,4,5-트리메톡시벤질)메탄아민] | 27% | – | 13.9%
NC(=O)[C@@H](NCc1c[nH]c2ccc(Cl)cc12)c1ccccc1 [실시예 7, (S)-2-((5-클로로-1H-인돌-3-일)메틸아미노)-2-페닐아세트아미드] | – | – | 3.45%
NC(=O)[C@@H](NCc1ccc(Oc2ccc(F)cc2)cc1)c1ccccc1 [실시예 10, (S)-2-(4-(4-플루오로페녹시)벤질아미노)-2-페닐아세트아미드] | 31.3% | – | 11.3%
Cc1onc(-c2ccc(Cl)cc2)c1C(=O)NC(C)CCc1ccccc1 (stereo not shown) [실시예 28, 3-(4-클로로페닐)-5-메틸-N-(4-페닐부탄-2-일)이속사졸-4-카복스아미드] | 24.4% | – | –
CC(CCc1ccccc1)NCc1ccc(N2CCOCC2)cc1 (stereo not shown) [실시예 14, N-(4-모폴리노벤질)-4-페닐부탄-2-아민] | 87.1% | 선택적인 저해 활성 | 10.2%
CC(CCc1ccccc1)NCc1ccc(Oc2ccc(Cl)cc2)cc1 (stereo not shown) [실시예 24, N-(4-(4-클로로페녹시)벤질)-4-페닐부탄-2-아민] | 10.2% | – | –
COc1cc(CNC(=O)c2ccc(-c3ccccc3)cc2)cc(OC)c1OC [실시예 38, N-(3,4,5-트리메톡시벤질)-[1,1'-바이페닐]-4-카복스아미드] | 6.9% | – | 18.3%
COc1ccc2[nH]cc(CN[C@@H](C)C(N)=O)c2c1 [실시예 5, (S)-2-((5-메톡시-1H-인돌-3-일)메틸아미노)프로판아미드] | 4.3% | – | 18.3%
CC(CCc1ccccc1)NCc1c[nH]c2ccc(Cl)cc12 (stereo not shown) [실시예 21, N-((5-클로로-1H-인돌-3-일)메틸)-4-페닐부탄-2-아민] | 38.5% | – | –
C[C@H](NCc1c[nH]c2ccc(Br)cc12)C(N)=O [실시예 2, (S)-2-((5-브로모-1H-인돌-3-일)메틸아미노)프로판아미드] | 59.9% | 선택적인 저해 활성 | 27.4%
COc1cc(CNCc2c[nH]c3cc(F)ccc23)cc(OC)c1OC [실시예 35, 1-(6-플루오로-1H-인돌-3-일)-N-(3,4,5-트리메톡시벤질)메탄아민] | 38.2% | – | –

SMILES | inhibition at 10 µM [1] | selective inhibitory activity against Nav1.7 [1] | inhibition at 10 µM [2]
COc1cc(CNCc2c[nH]c3ccccc23)cc(OC)c1OC [실시예 29, N-((1H-인돌-3-일)메틸)-1-(3,4,5-트리메톡시페닐)메탄아민] | 16.4% | – | –
CC(CCc1ccccc1)NC(=O)c1cccc2ccccc12 (stereo not shown) [실시예 27, N-(4-페닐부탄-2-일)-1-나프타미드] | 4.12% | – | 59.2%
C[C@H](NCc1c[nH]c2ccc(Cl)cc12)C(N)=O [실시예 3, (S)-2-((5-클로로-1H-인돌-3-일)메틸아미노)프로판아미드] | 2.46% | – | 20.7%
COc1cc(CNCc2ccc(Oc3ccc(F)cc3)cc2)cc(OC)c1OC [실시예 31, N-(4-(4-플루오로페녹시)벤질)-1-(3,4,5-트리메톡시페닐)메탄아민] | 16.6% | – | –
CC(CCc1ccccc1)NCc1ccc(Oc2ccc(F)cc2)cc1 (stereo not shown) [실시예 23, N-(4-(4-플루오로페녹시)벤질)-4-페닐부탄-2-아민] | 33.9% | – | –
COc1ccc2[nH]cc(CNCc3cc(OC)c(OC)c(OC)c3)c2c1 [실시예 36, 1-(5-메톡시-1H-인돌-3-일)-N-(3,4,5-트리메톡시벤질)메탄아민] | 23.7% | – | –
COc1cc(CNC(=O)c2ccc3ccccc3n2)cc(OC)c1OC [실시예 41, N-(3,4,5-트리메톡시벤질)퀴놀린-2-카복스아미드] | 71.7% | 선택적인 저해 활성 | 19.3%
CC(CCc1ccccc1)NCc1ccc(-c2ccc(Cl)cc2)o1 (stereo not shown) [실시예 15, N-((5-(4-클로로페닐)퓨란-2-일)메틸)-4-페닐부탄-2-아민] | 34.6% | – | 42.2%
COc1cc(CNCc2c[nH]c3c([N+](=O)[O-])cccc23)cc(OC)c1OC [실시예 37, 1-(7-니트로-1H-인돌-3-일)-N-(3,4,5-트리메톡시벤질)메탄아민] | 4.08% | – | 8.81%
NC(=O)[C@@H](NCc1cc(-c2ccc(Cl)cc2)on1)c1ccccc1 [실시예 9, (S)-2-((5-(4-클로로페닐)이속사졸-3-일)메틸아미노)-2-페닐아세트아미드] | – | – | 1.77%
CC(CCc1ccccc1)NCc1ccc(Oc2ccc(C#N)cc2)cc1 (stereo not shown) [실시예 20, 4-(4-((4-페닐부탄-2-일)아미노메틸)페녹시)벤조나이트릴] | 106% | 선택적인 저해 활성 | 42.2%
CC(CCc1ccccc1)NCc1c[nH]c2ccccc12 (stereo not shown) [실시예 22, N-((1H-인돌-3-일)메틸)-4-페닐부탄-2-아민] | 14.2% | – | –
COc1cc(CNCc2c[nH]c3ccc(OCc4ccccc4)cc23)cc(OC)c1OC [실시예 33, 1-(5-(벤질옥시)-1H-인돌-3-일)-N-(3,4,5-트리메톡시벤질)메탄아민] | 34.9% | – | 5.87%
NC(=O)[C@@H](NCc1ccc(Oc2ccc(Cl)cc2)cc1)c1ccccc1 [실시예 11, (S)-2-(4-(4-클로로페녹시)벤질아미노)-2-페닐아세트아미드] | 3.68% | – | 19.5%
C[C@H](NCc1c[nH]c2ccc(OCc3ccccc3)cc12)C(N)=O [실시예 1, (S)-2-((5-(벤질옥시)-1H-인돌-3-일)메틸아미노)프로판아미드] | 5.13% | – | 19.7%
COc1cc(CNCc2ccc(Oc3ccc(Cl)cc3)cc2)cc(OC)c1OC [실시예 32, N-(4-(4-클로로페녹시)벤질)-1-(3,4,5-트리메톡시페닐)메탄아민] | 15.2% | – | –
